{
  "source": "ChEMBL document CHEMBL5715952",
  "about": "(Oncotarget, 2015)",
  "key": {"[1]": {"assay": "Inhibition of VEGFR1/PDGFR/cKIT/RET in human bortezomib-resistant ANBL6 cells assessed as reduction of cell growth incubated for 72 hrs by CellTiter 96 aqueous one solution cell proliferation assay", "format": "cell-based"}, "[2]": {"assay": "Ratio of IC50 for inhibition of VEGFR3/PDGFR/cKIT/RET in human RPMI-8226 cells assessed as reduction of cell viability to IC50 for inhibition of VEGFR3/PDGFR/cKIT/RET in human melphalan-resistant RPMI-8226 cells assessed as reduction of cell viability", "details": "time 72 hrs; condition multiple myeloma"}, "[3]": {"assay": "Inhibition of VEGFR3/PDGFR/cKIT/RET in human ANBL-6 cells assessed as reduction of cell growth incubated for 72 hrs by CellTiter 96 aqueous one solution cell proliferation assay", "format": "cell-based", "details": "ANBL-6, 72 h"}, "[4]": {"assay": "Inhibition of VEGFR2/PDGFR/cKIT/RET in human ANBL-6 cells assessed as reduction of cell growth incubated for 72 hrs by CellTiter 96 aqueous one solution cell proliferation assay", "format": "cell-based", "details": "ANBL-6, 72 h"}, "[5]": {"assay": "Inhibition of VEGFR3/PDGFR/cKIT/RET in human U-266 cells assessed as reduction of cell growth incubated for 72 hrs by CellTiter 96 aqueous one solution cell proliferation assay", "format": "cell-based", "details": "U-266, 72 h"}, "[6]": {"assay": "Ratio of IC50 for inhibition of VEGFR3/PDGFR/cKIT/RET in human ANBL6 cells assessed as reduction of cell viability to IC50 for inhibition of VEGFR3/PDGFR/cKIT/RET in human ANBL6/BR resistant cells assessed as reduction of cell viability", "details": "condition multiple myeloma"}, "[7]": {"assay": "Ratio of IC50 for inhibition of VEGFR2/PDGFR/cKIT/RET in human ANBL6 cells assessed as reduction of cell viability to IC50 for inhibition of VEGFR2/PDGFR/cKIT/RET in human ANBL6/BR resistant cells assessed as reduction of cell viability", "details": "condition multiple myeloma"}, "[8]": {"assay": "Ratio of IC50 for inhibition of VEGFR3/PDGFR/cKIT/RET in human RPMI-8226 cells assessed as reduction of cell viability to IC50 for inhibition of VEGFR3/PDGFR/cKIT/RET in human RPMI-8226/BR resistant cells assessed as reduction of cell viability", "details": "condition multiple myeloma"}, "[9]": {"assay": "Ratio of IC50 for inhibition of VEGFR1/PDGFR/cKIT/RET in human ANBL6 cells assessed as reduction of cell viability to IC50 for inhibition of VEGFR1/PDGFR/cKIT/RET in human ANBL6/BR resistant cells assessed as reduction of cell viability", "details": "condition multiple myeloma"}, "[10]": {"assay": "Inhibition of VEGFR1/PDGFR/cKIT/RET in Melphalan Resistant human RPMI-8226 cells assessed as reduction of cell growth incubated for 72 hrs by CellTiter 96 aqueous one solution cell proliferation assay", "format": "cell-based", "details": "Melphalan-resistant RPMI-8226 cell"}, "[11]": {"assay": "Inhibition of VEGFR1/PDGFR/cKIT/RET in human U-266 cells assessed as reduction of cell growth incubated for 72 hrs by CellTiter 96 aqueous one solution cell proliferation assay", "format": "cell-based", "details": "U-266, 72 h"}, "[12]": {"assay": "Inhibition of VEGFR1/PDGFR/cKIT/RET in bortezomib Resistant human RPMI-8226 cells assessed as reduction of cell growth incubated for 72 hrs by CellTiter 96 aqueous one solution cell proliferation assay", "format": "cell-based", "details": "Bortezomib-resistant RPMI-8226, 72 h"}, "[13]": {"assay": "Inhibition of VEGFR2/PDGFR/cKIT/RET in human U-266 cells assessed as reduction of cell growth incubated for 72 hrs by CellTiter 96 aqueous one solution cell proliferation assay", "format": "cell-based", "details": "U-266, 72 h"}, "[14]": {"assay": "Inhibition of VEGFR2/PDGFR/cKIT/RET in Melphalan Resistant human RPMI-8226 cells assessed as reduction of cell growth incubated for 72 hrs by CellTiter 96 aqueous one solution cell proliferation assay", "format": "cell-based", "details": "Melphalan-resistant RPMI-8226 cell"}, "[15]": {"assay": "Inhibition of VEGFR1/PDGFR/cKIT/RET in human RPMI-8226 cells assessed as reduction of cell growth incubated for 72 hrs by CellTiter 96 aqueous one solution cell proliferation assay", "format": "cell-based", "details": "RPMI-8226, 72 h"}, "[16]": {"assay": "Inhibition of VEGFR3/PDGFR/cKIT/RET in Melphalan Resistant human RPMI-8226 cells assessed as reduction of cell growth incubated for 72 hrs by CellTiter 96 aqueous one solution cell proliferation assay", "format": "cell-based", "details": "Melphalan-resistant RPMI-8226 cell"}, "[17]": {"assay": "Inhibition of VEGFR2/PDGFR/cKIT/RET in human RPMI-8226 cells assessed as reduction of cell growth incubated for 72 hrs by CellTiter 96 aqueous one solution cell proliferation assay", "format": "cell-based", "details": "RPMI-8226, 72 h"}, "[18]": {"assay": "Ratio of IC50 for inhibition of VEGFR1/PDGFR/cKIT/RET in human RPMI-8226 cells assessed as reduction of cell viability to IC50 for inhibition of VEGFR1/PDGFR/cKIT/RET in human RPMI-8226/BR resistant cells assessed as reduction of cell viability", "details": "condition multiple myeloma"}, "[19]": {"assay": "Inhibition of VEGFR3/PDGFR/cKIT/RET in bortezomib Resistant human RPMI-8226 cells assessed as reduction of cell growth incubated for 72 hrs by CellTiter 96 aqueous one solution cell proliferation assay", "format": "cell-based", "details": "Bortezomib-resistant RPMI-8226, 72 h"}, "[20]": {"assay": "Inhibition of VEGFR3/PDGFR/cKIT/RET in human bortezomib-resistant ANBL6 cells assessed as reduction of cell growth incubated for 72 hrs by CellTiter 96 aqueous one solution cell proliferation assay", "format": "cell-based"}, "[21]": {"assay": "Inhibition of VEGFR1/PDGFR/cKIT/RET in human ANBL-6 cells assessed as reduction of cell growth incubated for 72 hrs by CellTiter 96 aqueous one solution cell proliferation assay", "format": "cell-based", "details": "ANBL-6, 72 h"}, "[22]": {"assay": "Ratio of IC50 for inhibition of VEGFR2/PDGFR/cKIT/RET in human RPMI-8226 cells assessed as reduction of cell viability to IC50 for inhibition of VEGFR2/PDGFR/cKIT/RET in human melphalan-resistant RPMI-8226 cells assessed as reduction of cell viability", "details": "time 72 hrs; condition multiple myeloma"}, "[23]": {"assay": "Ratio of IC50 for inhibition of VEGFR1/PDGFR/cKIT/RET in human RPMI-8226 cells assessed as reduction of cell viability to IC50 for inhibition of VEGFR1/PDGFR/cKIT/RET in human melphalan-resistant RPMI-8226 cells assessed as reduction of cell viability", "details": "time 72 hrs; condition multiple myeloma"}, "[24]": {"assay": "Inhibition of VEGFR2/PDGFR/cKIT/RET in human bortezomib-resistant ANBL6 cells assessed as reduction of cell growth incubated for 72 hrs by CellTiter 96 aqueous one solution cell proliferation assay", "format": "cell-based"}, "[25]": {"assay": "Inhibition of VEGFR3/PDGFR/cKIT/RET in human RPMI-8226 cells assessed as reduction of cell growth incubated for 72 hrs by CellTiter 96 aqueous one solution cell proliferation assay", "format": "cell-based", "details": "RPMI-8226, 72 h"}, "[26]": {"assay": "Inhibition of VEGFR2/PDGFR/cKIT/RET in bortezomib Resistant human RPMI-8226 cells assessed as reduction of cell growth incubated for 72 hrs by CellTiter 96 aqueous one solution cell proliferation assay", "format": "cell-based", "details": "Bortezomib-resistant RPMI-8226, 72 h"}, "[27]": {"assay": "Ratio of IC50 for inhibition of VEGFR2/PDGFR/cKIT/RET in human RPMI-8226 cells assessed as reduction of cell viability to IC50 for inhibition of VEGFR2/PDGFR/cKIT/RET in human RPMI-8226/BR resistant cells assessed as reduction of cell viability", "details": "condition multiple myeloma"}, "cells [28]": {"assay": "cells", "details": "Homo sapiens, ANBL-6, 72 h"}, "[29]": {"assay": "Ratio of IC50 for inhibition of hedgehog in human RPMI-8226 cells assessed as reduction of cell viability to IC50 for inhibition of hedgehog in human RPMI-8226/BR resistant cells assessed as reduction of cell viability", "details": "condition multiple myeloma"}, "cells [30]": {"assay": "cells", "details": "Homo sapiens, Bortezomib-resistant ANBL6 cell, 72 h"}, "[31]": {"assay": "Ratio of IC50 for inhibition of hedgehog in human ANBL6 cells assessed as reduction of cell viability to IC50 for inhibition of hedgehog in human ANBL6/BR resistant cells assessed as reduction of cell viability", "details": "condition multiple myeloma"}, "[32]": {"assay": "Ratio of IC50 for inhibition of hedgehog in human RPMI-8226 cells assessed as reduction of cell viability to IC50 for inhibition of hedgehog in human melphalan-resistant RPMI-8226 cells assessed as reduction of cell viability", "details": "time 72 hrs; condition multiple myeloma"}, "cells [33]": {"assay": "cells", "details": "Homo sapiens, Bortezomib-resistant RPMI-8226, 72 h"}, "cells [34]": {"assay": "cells", "details": "Homo sapiens, U-266, 72 h"}, "cells [35]": {"assay": "cells", "details": "Homo sapiens, RPMI-8226, 72 h"}, "cells [36]": {"assay": "cells", "details": "Homo sapiens, Melphalan-resistant RPMI-8226 cell, 72 h"}},
  "note": "pIC50: −log10 of the molar value.",
  "data": [
    {"smiles": "CC1(C)CNc2cc(NC(=O)c3cccnc3NCc3ccncc3)ccc21", "note": "[MOTESANIB]", "values": [
      {"measurement": "pIC50", "setting": "[1]", "result": 5.00},
      {"measurement": "Ratio IC50", "setting": "[2]", "result": 1},
      {"measurement": "pIC50", "setting": "[3]", "result": 5.00},
      {"measurement": "pIC50", "setting": "[4]", "result": 5.00},
      {"measurement": "pIC50", "setting": "[5]", "result": 5.00},
      {"measurement": "Ratio IC50", "setting": "[6]", "result": 1},
      {"measurement": "Ratio IC50", "setting": "[7]", "result": 1},
      {"measurement": "Ratio IC50", "setting": "[8]", "result": 1},
      {"measurement": "Ratio IC50", "setting": "[9]", "result": 1},
      {"measurement": "pIC50", "setting": "[10]", "result": 5.00},
      {"measurement": "pIC50", "setting": "[11]", "result": 5.00},
      {"measurement": "pIC50", "setting": "[12]", "result": 5.00},
      {"measurement": "pIC50", "setting": "[13]", "result": 5.00},
      {"measurement": "pIC50", "setting": "[14]", "result": 5.00},
      {"measurement": "pIC50", "setting": "[15]", "result": 5.00},
      {"measurement": "pIC50", "setting": "[16]", "result": 5.00},
      {"measurement": "pIC50", "setting": "[17]", "result": 5.00},
      {"measurement": "Ratio IC50", "setting": "[18]", "result": 1},
      {"measurement": "pIC50", "setting": "[19]", "result": 5.00},
      {"measurement": "pIC50", "setting": "[20]", "result": 5.00},
      {"measurement": "pIC50", "setting": "[21]", "result": 5.00},
      {"measurement": "Ratio IC50", "setting": "[22]", "result": 1},
      {"measurement": "Ratio IC50", "setting": "[23]", "result": 1},
      {"measurement": "pIC50", "setting": "[24]", "result": 5.00},
      {"measurement": "pIC50", "setting": "[25]", "result": 5.00},
      {"measurement": "pIC50", "setting": "[26]", "result": 5.00},
      {"measurement": "Ratio IC50", "setting": "[27]", "result": 1}
    ]},
    {"smiles": "CS(=O)(=O)c1ccc(C(=O)Nc2ccc(Cl)c(-c3ccccn3)c2)c(Cl)c1", "note": "[VISMODEGIB]", "values": [
      {"measurement": "pIC50", "setting": "cells [28]", "result": 5.00},
      {"measurement": "Ratio IC50", "setting": "[29]", "result": 1},
      {"measurement": "pIC50", "setting": "cells [30]", "result": 5.00},
      {"measurement": "Ratio IC50", "setting": "[31]", "result": 1},
      {"measurement": "Ratio IC50", "setting": "[32]", "result": 1},
      {"measurement": "pIC50", "setting": "cells [33]", "result": 5.00},
      {"measurement": "pIC50", "setting": "cells [34]", "result": 5.00},
      {"measurement": "pIC50", "setting": "cells [35]", "result": 5.00},
      {"measurement": "pIC50", "setting": "cells [36]", "result": 5.00}
    ]}
  ]
}
